Test results taken from paper PMC5691054, “An unexpected protein interaction promotes drug resistance in leukemia” (Nature Communications, 2017).
Entries after “also recorded” stand apart in the source; their conditions may differ. Where no end group is shown, it is not given here. The star is where a group is joined. Biotin = O=C1N[C@H]2[C@H](CS[C@H]2CCCCC(=O)*)N1; FAM = fluorescein

Assays:
[1] = target: T1, MPP1 and ABCC4 protein interaction (Homo sapiens, UniProt Q00013); experiment: Competition of ABCC4 C-terminal peptides with MPP1–ABCC4 complex (GST-ABCC4-C100 pull-down, immunoblot); assay type: biochemical
T1 construct: For full-length expression of MPP1, the pTriX vector containing an N-terminal His tag was used to create the His-S-MPP1 fusion protein; made in house; host or cells: E. coli
T1 sequence (Q00013 1-466): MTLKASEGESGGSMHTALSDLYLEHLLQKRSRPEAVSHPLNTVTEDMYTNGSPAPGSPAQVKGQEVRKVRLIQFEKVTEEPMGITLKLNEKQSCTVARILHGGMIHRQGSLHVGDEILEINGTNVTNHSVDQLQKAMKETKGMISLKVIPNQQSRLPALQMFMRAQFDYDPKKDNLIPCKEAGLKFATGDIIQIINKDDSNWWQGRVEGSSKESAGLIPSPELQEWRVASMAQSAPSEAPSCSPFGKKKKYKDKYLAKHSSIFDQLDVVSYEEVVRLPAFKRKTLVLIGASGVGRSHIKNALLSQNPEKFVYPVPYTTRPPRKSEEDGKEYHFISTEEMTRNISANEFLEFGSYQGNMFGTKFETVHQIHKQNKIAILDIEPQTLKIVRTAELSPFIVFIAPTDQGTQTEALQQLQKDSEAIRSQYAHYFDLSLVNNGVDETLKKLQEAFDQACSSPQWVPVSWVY
Procedure: C-terminal peptides of ABCC4 containing the carboxyl-terminal 15 amino acids ([…]-COOH, ABCC4-PDZ) or carboxyl-terminal 11 amino acids lacking the PDZ-binding motif ([…]-COOH, ABCC4ΔC) conjugated to the cell penetrating peptide TAT ([…]) were chemically synthesized by the Hartwell Center for Bionformatics and Biotechnology at SJCRH. ABCC4 peptides (1–4 μM) were mixed with purified GST-ABCC4-C100 (50 nM) (Supplementary Fig. 10 ) before addition of His-S-MPP1 (3.6 nM) and allowed to mix for 2 h at 24 °C. The GST-ABCC4-C100 was immobilized on glutathione beads, and washed 3 times. Protein complexes were eluted from the beads, separated by SDS-PAGE, and immunoblotted with rabbit anti-MPP1.

[2] = tested on: ABCC4 plasma membrane localization in HEK293 cells expressing MPP1 and GFP-ABCC4; experiment: ABCC4 plasma membrane localization (confocal microscopy); assay type: cell-based, Human
Procedure: Peptides containing or lacking the ABCC4-PDZ motif were fused with the cell penetrating HIV-TAT peptide. These peptides were tested for their effect on ABCC4 plasma membrane localization. HEK293 cells were transfected with MPP1 and GFP-ABCC4 and the ER protein, calreticulin. The plasma membrane was counter-stained with wheat-germ-agglutinin (WGA) labeled with Alexa647 after treatment with either ABCC4-PDZ or ABCC4ΔC peptide.
HEK293 cells were seeded on chambered coverglass slides (LAB-TEK) 48 h before transfection with plasmid DNA (250 ng) encoding pAc-GFP-ABCC4 or ABCC4ΔC and pCal plasmid encoding the ER resident protein calreticulin conjugated to RFP (Origene). Transfection was performed using Lipofectamine 2000 as per the manufacturer’s instructions. Immediately prior to visualizing cells, cells were counterstained with the plasma membrane marker wheat-germ agglutinin (WGA) conjugated to Alexa-647 (Invitrogen). All confocal microscopy images were acquired on a 3i Marianas system configured with an Yokagowa CSU-X spinning disk confocal microscope utilizing a ×63 Zeiss objective, using the 488 (GFP), 561 (RFP), and 660 (far red) laser lines.

HEK293 cells = experiment: 6MP cytotoxicity / drug resistance in transfected HEK293 cells; assay type: cell-based, Human; details: HEK293 co-expressing ABCC4 and MPP1; cell penetrating peptide (20 μM in methods; various amounts), 96 h, in words
Procedure: HEK293 cells transfected with ABCC4 or ABCC4ΔC in the presence or absence of MPP1, MO7e, and Meg01 cells were treated with 10 concentrations of 6MP, ranging from 1 to 1000 µM, for 96 h. Cell viability analysis was determined using CellTiter Glo (Promega). Where applicable, cell penetrating peptides conjugated to the PDZ-binding motif of ABCC4 (labeled either ABCC4-PDZ or ABCC4ΔC) were added to the cells at 20 μM. Media was changed daily and new ABCC4-PDZ/ABCC4ΔC peptide and 6MP was added. IC50 values were calculated using GraphPad Prism.

MO7e cells [3] = experiment: Cytarabine cytotoxicity in MO7e cells; assay type: cell-based, Human; details: in words
Procedure: MO7e cells were seeded at 1500 cells per well of a 96-well plate. Cells were then treated with Cytarabine at increasing concentrations ranging from 0.5 to 500 μM for 4 h in serum-free media. Cells were washed three times with PBS and replaced with fresh complete media for 68 h. Cell viability analysis was determined using CellTiter Glo. Where applicable, cells were treated with 10 nM Antimycin A. IC50 values were calculated using GraphPad Prism.

[4] = tested on: murine hematopoietic progenitor cells (HPC)
MO7e cells [5] = experiment: 6MP cytotoxicity in MO7e cells and CRISPR knock-outs; assay type: cell-based, Human
[6] = tested on: murine hematopoietic progenitor cells (HPC); experiment: Hematopoietic progenitor cell serial replating in methylcellulose; details: HPC transduced with MPP1; cell penetrating peptide, fresh at each replating; n = 3
[7] = target: T2, MPP1, endogenous in MO7e cells (human (endogenous in MO7e), UniProt Q00013 1-466); experiment: cell-based or functional assay
T2 sequence (looked up): T1 sequence (Q00013 1-466)

[8] = target: T3, His-S-MPP1 fusion protein (full-length MPP1) (UniProt Q00013 1-466); experiment: FRET or BRET; TR-FRET: various concentrations of B-ABCC4 with 5 nM Tb-anti-His, 50 nM AF488-streptavidin and 5 nM His-S-MPP1 in DPBS, 0.01% BSA, 1 mM DTT, 0.5% DMSO; one site total binding fit; details: both partners purified
T3 construct: MPP1 (p55), full length, expressed from the pTriX vector; the fragments of the same protein are numbered up to amino acid 466; also called purified MPP1; source: E. coli, purified (nickel column); not shown: His tag, N-terminal, kept
T3 sequence (looked up): T1 sequence (Q00013 1-466)

[9] = target: T3, His-S-MPP1 fusion protein (full-length …); experiment: fluorescence polarisation; 100 nM FAM-ABCC4 incubated with various concentrations of full-length MPP1; estimated constant; details: both partners purified
[10] = target: T3, His-S-MPP1 fusion protein (full-length …); experiment: pull-down; competition: TAT-ABCC4 peptides (1–4 μM) mixed with GST-ABCC4-C100 (50 nM) before addition of His-S-MPP1 (3.6 nM), 2 h at 24 °C; GST-ABCC4-C100 immobilized on glutathione beads, washed 3 times; immunoblot with rabbit anti-MPP1; details: both partners purified

SNGQPSTLTIFETAL-OH [ABCC4-PDZ, carboxyl-terminal 15 amino acids of ABCC4 conjugated to the cell penetrating peptide TAT]
disruption of the MPP1 and ABCC4 protein interaction ([1]; in words, in vitro competition experiment): potently disrupted complex formation | greater affinity of MPP1 for ABCC4 vs. glycophorin c ([1]; suggested by the IC50 of ~300 nM): 15 fold | transfected cells exhibiting loss of ABCC4 at the plasma membrane ([2]; cell penetrating peptide (TAT fused; 10 μM in Supplementary Fig. 4), n = 20 fields of view): over 90% | effect on ABCC4 plasma membrane localization ([2]; in words, confocal microscopy): reduced the ABCC4 plasma membrane localization | effect of peptide on 6MP IC50 (HEK293 cells): dose-dependently suppressed the IC50 of 6MP with the highest dose almost completely reversing the salutary effect of MPP1 | effect of peptide on cytarabine sensitivity (MO7e cells [3]; MO7e lacking ABCC4): no additional sensitivity to cytarabine | effect of peptide on cytarabine sensitivity (MO7e cells [3]; MO7e, cytarabine 0.5–500 μM 4 h, then 68 h): sensitized to cytarabine cytotoxicity; also recorded: specifically sensitized MO7e cells to cytarabine | effect of co-treatment on IC50 for cytarabine (MO7e cells [3]; peer review file): reduce the IC50 for cytarabine | toxicity to normal hematopoietic progenitors [4]: not toxic to normal | effect of peptide on 6MP sensitivity (MO7e cells [5]; cell permeable peptide (10 μM), in words): sensitizes MO7e cells to 6MP | reduction of 6MP IC50 by peptide (MO7e cells [5]; cell permeable peptide (10 μM, Supplementary Fig. 5c)): 2.6 fold | effect on MPP1-driven methylcellulose replating [6]: suppressed methylcellulose replating

B1: ABCC4, endogenous in MO7e cells (natural protein, human (endogenous in MO7e), UniProt O15439 1-1325, looked up)
chain: MLPVYQEVKPNPLQDANLCSRVFFWWLNPLFKIGHKRRLEEDDMYSVLPEDRSQHLGEELQGFWDKEVLRAENDAQKPSLTRAIIKCYWKSYLVLGIFTLIEESAKVIQPIFLGKIINYFENYDPMDSVALNTAYAYATVLTFCTLILAILHHLYFYHVQCAGMRLRVAMCHMIYRKALRLSNMAMGKTTTGQIVNLLSNDVNKFDQVTVFLHFLWAGPLQAIAVTALLWMEIGISCLAGMAVLIILLPLQSCFGKLFSSLRSKTATFTDARIRTMNEVITGIRIIKMYAWEKSFSNLITNLRKKEISKILRSSCLRGMNLASFFSASKIIVFVTFTTYVLLGSVITASRVFVAVTLYGAVRLTVTLFFPSAIERVSEAIVSIRRIQTFLLLDEISQRNRQLPSDGKKMVHVQDFTAFWDKASETPTLQGLSFTVRPGELLAVVGPVGAGKSSLLSAVLGELAPSHGLVSVHGRIAYVSQQPWVFSGTLRSNILFGKKYEKERYEKVIKACALKKDLQLLEDGDLTVIGDRGTTLSGGQKARVNLARAVYQDADIYLLDDPLSAVDAEVSRHLFELCICQILHEKITILVTHQLQYLKAASQILILKDGKMVQKGTYTEFLKSGIDFGSLLKKDNEESEQPPVPGTPTLRNRTFSESSVWSQQSSRPSLKDGALESQDTENVPVTLSEENRSEGKVGFQAYKNYFRAGAHWIVFIFLILLNTAAQVAYVLQDWWLSYWANKQSMLNVTVNGGGNVTEKLDLNWYLGIYSGLTVATVLFGIARSLLVFYVLVNSSQTLHNKMFESILKAPVLFFDRNPIGRILNRFSKDIGHLDDLLPLTFLDFIQTLLQVVGVVSVAVAVIPWIAIPLVPLGIIFIFLRRYFLETSRDVKRLESTTRSPVFSHLSSSLQGLWTIRAYKAEERCQELFDAHQDLHSEAWFLFLTTSRWFAVRLDAICAMFVIIVAFGSLILAKTLDAGQVGLALSYALTLMGMFQWCVRQSAEVENMMISVERVIEYTDLEKEAPWEYQKRPPPAWPHEGVIIFDNVNFMYSPGGPLVLKHLTALIKSQEKVGIVGRTGAGKSSLISALFRLSEPEGKIWIDKILTTEIGLHDLRKKMSIIPQEPVLFTGTMRKNLDPFNEHTDEELWNALQEVQLKETIEDLPGKMDTELAESGSNFSVGQRQLVCLARAILRKNQILIIDEATANVDPRTDELIQKKIREKFAHCTVLTIAHRLNTIIDSDKIMVLDSGRLKEYDEPYVLLQNKESLFYKMVQQLGKAEAAALTETAKQVYFKRNYPHIGHTDHMVTNTSNGQPSTLTIFETAL
IC50 of 6MP in MO7e cells with the C-terminal ABCC4 peptide [7]: 2.6 fold

B2: Biotinylated C-terminal ABCC4 peptide (biotin-[residues removed]-COOH) (peptide)
peptide: Biotin-GHTDHMVTNTSNGQPSTLTIFETAL-OH
modifications: not fully specified; printed as biotin-GHTDHMVTNTSNGQPSTLTIFETAL-COOH
notes: ABCC4, human, C-terminal 25 amino acids with the PDZ motif ETAL; Detected through Alexa Fluor 488 streptavidin in the TR-FRET assay; also called B-ABCC4; ABCC4-PDZ peptide; source: synthetic peptide
Kd [8]: ~511 nM

B3: Fluorescein-conjugated C-terminal peptide of ABCC4 (FAM-TIFETAL-COOH) (peptide)
peptide: {FAM}-TIFETAL-OH
notes: ABCC4, human, C-terminal 7 amino acids with the PDZ motif ETAL; also called FAM-ABCC4; fluorescein-labeled ABCC4-PDZ motif peptide; source: synthetic peptide
Kd [9]: ~600 nM

B4: ABCC4-PDZ peptide (carboxyl-terminal 15 amino acids of ABCC4) conjugated to the cell penetrating peptide TAT (peptide)
peptide: YGRKKRRQRRRSNGQPSTLTIFETAL
notes: cell penetrating HIV-TAT peptide; ABCC4, human, carboxyl-terminal 15 amino acids with the PDZ motif ETAL, free COOH; also called cell penetrating ABCC4-PDZ peptide; source: synthetic peptide
IC50 [10]: ~300 nM
